Assay results: paper PMC5860131, “Identification of natural products as novel ligands for the human 5-HT2C receptor” (Biophysics Reports, 2018)

Key:
[1] = molecular target: T1, 5-HT2C receptor A222^5.46F (Homo sapiens, UniProt P28335, A222F/DEL255-298/G251D/H250E/H252N/INS299[…]/L248D/M247A/M300L/T253W); assay: Affinity MS assay, 5-HT2C mutant A222F; format: binding; details: mutant A222^5.46F, n = 2
T1 construct: the N- and C-terminals were truncated by 39 and 65 residues, respectively; PreScission protease site + 10× His (C); made in house
Excerpt: (§1) Based on the binding poses predicted by molecular docking, single-point mutations were designed to test their impact on ligand binding. Mutations of several residues include the highly conserved Asp134^3.32, which is known to cause 5-HT1B or 5-HT2B receptors to abolish the monoamine ligand binding as reported in the literature (Wang et al. [2013]). In this study, residues forming hydrophobic interactions with the substitution groups on the aporphine scaffold of (–)-crebanine (1) were selected for mutation as well and they are Thr139^3.37, Gly218^5.42, Ala222^5.46, and Leu209^ECL2. Effects of those mutations were tested with the CPM assay and the affinity MS assay (Table 2). In the affinity MS experiment, relative ligand-binding capacity (represented by binding %) to different mutants and the wild-type receptor was compared. Among the six mutations tested, five of them reduced the binding of (–)-crebanine (1) by more than 40% relative to binding to the wild-type receptor, displaying the importance of hydrophobic interactions. […]
(§2) Four experimental replicates were prepared for each pair of the test ligand and the negative control. […] S/C ratios refer to the ratio of MS response of a specific ligand detected in the 5-HT2C incubation sample versus the control. […]

[2] = molecular target: T2, 5-HT2A receptor (Homo sapiens, UniProt P28223); assay: Ca2+ mobilization assay (Fluo-4, FLIPR), HEK 293T cells stably transfected with 5-HT2A; format: cell-based
T2 construct: expressed in transfected cells; host or cells: HEK 293T, stably transfected
Excerpt: The 5-HT2C receptor mainly couples to Gαq proteins. The activated 5-HT2C receptor transmits the signals from the extracellular to the intercellular side using DAG/IP3 (diacyl glycerol/inositol 1,4,5-trisphosphate) as its second massagers (Hannon and Hoyer [2008]). IP3 stimulates the endoplasmic reticulum to release calcium ions into the cytoplasm, which causes the increase of calcium concentration in cytosol. Therefore, calcium mobilization assay is commonly applied to understand how unknown small molecule ligands of 5-HT2C receptor modulate cellular signal transductions. In this case, Fluo-4 Direct dye was used as a fluorescence indicator to detect calcium flux in G protein-coupled receptor expressed cells. The fold of maximum response over average of basal reading is plotted against compound concentration to determine the potency of the compounds (Fig. 3). […]. […] After the dye loaded, cells were placed in a FLIPR^TETRA fluorescence imaging plate reader (Molecular Devices); drug dilutions, prepared at 3× final concentration in FLIPR buffer and aliquotted into 384-well plates, were also added to the FLIPR^TETRA. The fluidics module and plate reader of the FLIPR^TETRA were programmed to read baseline fluorescence for 10 s (1 read/s), then to add 10 μl of drug/well and to read for 6 min (1 read/s). […]

[3] = molecular target: T3, 5-HT2C receptor G218^5.42S (Homo sapiens, UniProt P28335, DEL255-298/G218S/G251D/H250E/H252N/INS299[…]/L248D/M247A/M300L/T253W); assay: Affinity MS assay, 5-HT2C mutant G218S; format: binding
T3 construct: the N- and C-terminals were truncated by 39 and 65 residues, respectively; PreScission protease site + 10× His (C); made in house
Excerpt: as §1, §2

T3 sequence (P28335 with tags, fused parts or gaps with the stated changes): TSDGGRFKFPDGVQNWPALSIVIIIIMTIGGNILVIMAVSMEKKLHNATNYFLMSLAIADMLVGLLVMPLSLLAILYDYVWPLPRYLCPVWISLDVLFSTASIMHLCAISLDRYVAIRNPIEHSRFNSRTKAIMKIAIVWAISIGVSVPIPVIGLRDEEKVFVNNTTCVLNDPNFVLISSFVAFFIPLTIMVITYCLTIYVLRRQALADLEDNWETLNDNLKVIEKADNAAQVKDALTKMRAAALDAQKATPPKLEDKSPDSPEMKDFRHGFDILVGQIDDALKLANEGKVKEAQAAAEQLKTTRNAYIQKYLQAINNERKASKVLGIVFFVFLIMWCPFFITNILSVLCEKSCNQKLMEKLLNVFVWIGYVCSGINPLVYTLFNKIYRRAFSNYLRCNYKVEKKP
T1 sequence (P28335 with tags, fused parts or gaps with the stated changes): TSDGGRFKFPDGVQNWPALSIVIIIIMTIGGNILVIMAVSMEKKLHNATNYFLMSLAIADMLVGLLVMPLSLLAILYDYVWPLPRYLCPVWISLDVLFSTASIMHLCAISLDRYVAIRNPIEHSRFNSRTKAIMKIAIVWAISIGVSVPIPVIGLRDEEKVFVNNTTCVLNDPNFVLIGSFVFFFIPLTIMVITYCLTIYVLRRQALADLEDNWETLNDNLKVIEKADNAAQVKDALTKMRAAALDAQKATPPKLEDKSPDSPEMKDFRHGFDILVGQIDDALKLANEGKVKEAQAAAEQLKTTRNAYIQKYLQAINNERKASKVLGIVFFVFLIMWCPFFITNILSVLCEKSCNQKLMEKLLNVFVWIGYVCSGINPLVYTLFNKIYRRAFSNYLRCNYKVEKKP
T2 sequence (P28223 whole entry): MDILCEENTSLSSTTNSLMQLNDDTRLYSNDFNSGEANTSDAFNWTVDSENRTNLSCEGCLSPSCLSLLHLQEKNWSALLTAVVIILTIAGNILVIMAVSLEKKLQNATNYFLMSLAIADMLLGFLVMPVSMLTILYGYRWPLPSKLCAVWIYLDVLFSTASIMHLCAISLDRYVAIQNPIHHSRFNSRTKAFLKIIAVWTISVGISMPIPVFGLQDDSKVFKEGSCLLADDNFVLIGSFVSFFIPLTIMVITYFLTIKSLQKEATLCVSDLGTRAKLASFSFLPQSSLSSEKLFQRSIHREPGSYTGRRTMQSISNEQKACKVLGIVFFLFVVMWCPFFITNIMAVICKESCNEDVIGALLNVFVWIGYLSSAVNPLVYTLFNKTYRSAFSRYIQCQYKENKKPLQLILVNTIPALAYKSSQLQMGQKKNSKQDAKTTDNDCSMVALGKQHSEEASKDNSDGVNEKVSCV

Structure (SMILES): COc1ccc2c(c1OC)C[C@@H]1c3c(cc4c(c3-2)OCO4)CCN1C [Compound 1, (–)-crebanine]
- (–)-Crebanine/MS relative ligand binding [1]: 15.87%
- IC50 [2]: 564 nM
- (–)-Crebanine/MS relative ligand binding ([3]; mutant G218^5.42S, n = 2): 6.04%
- ligand-binding capacity reduction versus wild-type ([3]; mutation Gly218^5.42Ser): over 60%
